Positions count from the first letter of the chain named. “And” between values parts separate entries of the source, which are not always exact repeats. Identical values can stand only once.
Columns and labels:
[1] = molecular target: tbaqp1-2-3 null cells expressing TbAQP2 WT or Trp/Met mutants (Trypanosoma brucei brucei, UniProt Q6ZXT3); assay type: cell-based; details: + AQP2 WT
[2] = molecular target: T1, tbaqp1-2-3 null cells expressing TbAQP2 WT or Trp/Met mutants (Trypanosoma brucei brucei, UniProt Q6ZXT3, L118M); assay type: cell-based; details: AQP2 mutant L118M
T1 sequence (Q6ZXT3 1-312 L118M): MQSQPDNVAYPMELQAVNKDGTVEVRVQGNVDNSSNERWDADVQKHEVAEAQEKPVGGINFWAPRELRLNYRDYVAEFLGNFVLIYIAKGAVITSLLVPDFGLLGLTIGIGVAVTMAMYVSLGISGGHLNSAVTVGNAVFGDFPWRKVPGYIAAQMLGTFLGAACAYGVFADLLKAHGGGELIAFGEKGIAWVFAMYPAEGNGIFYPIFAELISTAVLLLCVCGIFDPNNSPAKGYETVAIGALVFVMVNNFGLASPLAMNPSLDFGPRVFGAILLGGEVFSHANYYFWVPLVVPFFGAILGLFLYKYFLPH

[3] = molecular target: T2, tbaqp1-2-3 null cells expressing TbAQP2 WT or Trp/Met mutants (Trypanosoma brucei brucei, UniProt Q6ZXT3, L118W); assay type: cell-based; details: AQP2 mutant L118W
T2 sequence (Q6ZXT3 1-312 L118W): T1 sequence (Q6ZXT3 1-312 L118M) with M118W

[4] = molecular target: T3, tbaqp1-2-3 null cells expressing TbAQP2 WT or Trp/Met mutants (Trypanosoma brucei brucei, UniProt Q6ZXT3, L118W/L84W); assay type: cell-based; details: AQP2 mutant L84W/L118W
T3 sequence (Q6ZXT3 1-312 L84W/L118W): T1 sequence (Q6ZXT3 1-312 L118M) with L84W, M118W

[5] = molecular target: T4, tbaqp1-2-3 null cells expressing TbAQP2 WT or Trp/Met mutants (Trypanosoma brucei brucei, UniProt Q6ZXT3, L218M); assay type: cell-based; details: AQP2 mutant L218M
T4 sequence (Q6ZXT3 1-312 L218M): T1 sequence (Q6ZXT3 1-312 L118M) with M118L, L218M

[6] = molecular target: T5, tbaqp1-2-3 null cells expressing TbAQP2 WT or Trp/Met mutants (Trypanosoma brucei brucei, UniProt Q6ZXT3, L218W); assay type: cell-based; details: AQP2 mutant L218W
T5 sequence (Q6ZXT3 1-312 L218W): T1 sequence (Q6ZXT3 1-312 L118M) with M118L, L218W

[7] = molecular target: T6, tbaqp1-2-3 null cells expressing TbAQP2 WT or Trp/Met mutants (Trypanosoma brucei brucei, UniProt Q6ZXT3, L84M); assay type: cell-based; details: AQP2 mutant L84M
T6 sequence (Q6ZXT3 1-312 L84M): T1 sequence (Q6ZXT3 1-312 L118M) with L84M, M118L

[8] = molecular target: T7, tbaqp1-2-3 null cells expressing TbAQP2 WT or Trp/Met mutants (Trypanosoma brucei brucei, UniProt Q6ZXT3, L84W); assay type: cell-based; details: AQP2 mutant L84W
T7 sequence (Q6ZXT3 1-312 L84W): T1 sequence (Q6ZXT3 1-312 L118M) with L84W, M118L

[9] = tested on: tbaqp1-2-3 null cells expressing TbAQP2 WT or Trp/Met mutants; assay type: cell-based, Trypanosoma brucei brucei; details: triple KO AQP1-3

With `OCC(O)CO` [Glycerol] the “Glycerol uptake, percent of + AQP2 WT, single replicates” value [1] was 100.00% of + AQP2 WT, the “Glycerol uptake, percent of + AQP2 WT, AVG” value ([1]; n=3) was 100.0% of + AQP2 WT and the “Glycerol uptake, percent of + AQP2 WT, single replicates” value [2] was 62.48% of + AQP2 WT and 49.85% of + AQP2 WT. The “Glycerol uptake, single replicates” value ([2]; exp HK1560) was 11510.33 dpm and 10303.00 dpm, the “Glycerol uptake, percent of + AQP2 WT, AVG” value ([2]; n=2) was 56.2% of + AQP2 WT and the “Glycerol uptake, percent of + AQP2 WT, single replicates” value [3] was 36.39% of + AQP2 WT and 32.80% of + AQP2 WT and 32.53% of + AQP2 WT. The “Glycerol uptake, single replicates” value ([3]; exp HK1560) was 6704.25 dpm and 6779.50 dpm and 6612.25 dpm, the “Glycerol uptake, AVG” value ([3]; n=3) was 6699 dpm and the “Glycerol uptake, percent of + AQP2 WT, AVG” value ([3]; n=3) was 33.9% of + AQP2 WT. The “Glycerol uptake, percent of + AQP2 WT, single replicates” value [4] was 26.06% of + AQP2 WT and 22.48% of + AQP2 WT and 15.25% of + AQP2 WT, the “Glycerol uptake, single replicates” value ([4]; exp HK1560) was 4801.50 dpm and 4646.75 dpm and 3099.50 dpm and the “Glycerol uptake, AVG” value ([4]; n=3) was 4183 dpm. For the same compound, the “Glycerol uptake, percent of + AQP2 WT, AVG” value ([4]; n=3) was 21.3% of + AQP2 WT, the “Glycerol uptake, percent of + AQP2 WT, single replicates” value [5] was 85.78% of + AQP2 WT and 59.96% of + AQP2 WT and 82.90% of + AQP2 WT and the “Glycerol uptake, single replicates” value ([5]; exp HK1560) was 15802.25 dpm and 12393.00 dpm and 16849.00 dpm. The “Glycerol uptake, AVG” value ([5]; n=3) was 15015 dpm, the “Glycerol uptake, percent of + AQP2 WT, AVG” value ([5]; n=3) was 76.2% of + AQP2 WT and the “Glycerol uptake, percent of + AQP2 WT, single replicates” value [6] was 75.79% of + AQP2 WT and 58.22% of + AQP2 WT and 78.07% of + AQP2 WT. For the same compound, the “Glycerol uptake, single replicates” value ([6]; exp HK1560) was 13962.75 dpm and 12032 dpm and 15866.50 dpm, the “Glycerol uptake, AVG” value ([6]; n=3) was 13954 dpm and the “Glycerol uptake, percent of + AQP2 WT, AVG” value ([6]; n=3) was 70.7% of + AQP2 WT. For the same compound, the “Glycerol uptake, percent of + AQP2 WT, single replicates” value [7] was 71.54% of + AQP2 WT and 78.57% of + AQP2 WT and 85.30% of + AQP2 WT, the “Glycerol uptake, single replicates” value ([7]; exp HK1560) was 13178.67 dpm and 16239.50 dpm and 17336.50 dpm and the “Glycerol uptake, AVG” value ([7]; n=3) was 15585 dpm. For the same compound, the “Glycerol uptake, percent of + AQP2 WT, AVG” value ([7]; n=3) was 78.5% of + AQP2 WT, the “Glycerol uptake, percent of + AQP2 WT, single replicates” value [8] was 55.50% of + AQP2 WT and 63.99% of + AQP2 WT and 46.33% of + AQP2 WT and the “Glycerol uptake, single replicates” value ([8]; exp HK1560) was 10224.8 dpm and 13226.00 dpm and 9416.00 dpm. The “Glycerol uptake, AVG” value ([8]; n=3) was 10956 dpm, the “Glycerol uptake, percent of + AQP2 WT, AVG” value ([8]; n=3) was 55.3% of + AQP2 WT and the “Glycerol uptake, percent of + AQP2 WT, single replicates” value [9] was 18.67% of + AQP2 WT and 17.85% of + AQP2 WT and 11.96% of + AQP2 WT. The “Glycerol uptake, single replicates” value ([9]; exp HK1560) was 3439.75 dpm and 3689.75 dpm and 2430 dpm, the “Glycerol uptake, AVG” value ([9]; n=3) was 3187 dpm and the “Glycerol uptake, percent of + AQP2 WT, AVG” value ([9]; n=3) was 16.2% of + AQP2 WT.

— paper PMC7473772 (eLife, 2020)
